Usually inhibition stands for the share of the control response that was lost under treatment. Broadly, the Kd is the free concentration of one partner at which half of the binding sites on the other are occupied at equilibrium, for simple one-to-one binding.

Like-named read-outs stand apart in the source and are kept apart here.

The target in one assay is Tyk2 kinase domain (DH1) (Homo sapiens (Human), UniProt P29597). The assay can be described thus: Tyk2 Radioactive Kinase Assay. In kind it is biochemical. Particulars: for inhibition at 10 µM: read-out: Tyk2 JH1% Inhibition @ 10 μM. The method, boiled down: (§1)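 Read-out is percent inhibition from a radioactive kinase reaction, measured with compound at 10 μM.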
For another assay, the target named is JAK2 kinase domain (JH1) (Homo sapiens (Human), UniProt O60674). As to the kind of experiment: JAK2 Radioactive Kinase Assay. In kind it is biochemical. Particulars: for inhibition at 10 µM: read-out: JAK2 JH1% Inhibition @ 10 μM. The method, boiled down: as §1
In assay [1] the target is human TYK2 (JH2domain-pseudokinase) (Homo sapiens (Human), UniProt P29597). As to the kind of experiment: TYK2 JH2 Domain Binding Assay (KINOMEscan). The method, boiled down: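 The construct was human TYK2 G556–D888 fused to the NFkB DNA-binding domain and expressed in HEK293 cells; unpurified extract was incubated with compound and liganded beads for 1 hour at room temperature.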
human TYK2 (JH2domain-pseudokinase), sequence (P29597 556-888): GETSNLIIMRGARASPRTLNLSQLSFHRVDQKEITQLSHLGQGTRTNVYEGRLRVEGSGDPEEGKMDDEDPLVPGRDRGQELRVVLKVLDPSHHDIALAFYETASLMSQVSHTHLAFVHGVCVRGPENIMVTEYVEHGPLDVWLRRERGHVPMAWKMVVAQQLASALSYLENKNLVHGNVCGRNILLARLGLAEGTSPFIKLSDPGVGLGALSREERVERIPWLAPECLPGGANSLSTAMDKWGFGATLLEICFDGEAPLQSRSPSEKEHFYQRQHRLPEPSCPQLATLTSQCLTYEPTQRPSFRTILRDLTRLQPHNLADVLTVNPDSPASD

Tyk2 kinase domain (DH1), sequence (P29597 897-1176): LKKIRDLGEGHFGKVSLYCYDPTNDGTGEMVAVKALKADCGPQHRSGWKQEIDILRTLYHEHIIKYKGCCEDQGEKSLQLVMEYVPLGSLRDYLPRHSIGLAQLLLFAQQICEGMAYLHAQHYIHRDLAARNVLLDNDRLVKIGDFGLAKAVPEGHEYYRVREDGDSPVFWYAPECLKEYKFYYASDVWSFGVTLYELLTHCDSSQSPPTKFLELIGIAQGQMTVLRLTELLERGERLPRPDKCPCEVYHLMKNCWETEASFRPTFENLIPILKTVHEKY
JAK2 kinase domain (JH1), sequence (O60674 849-1124): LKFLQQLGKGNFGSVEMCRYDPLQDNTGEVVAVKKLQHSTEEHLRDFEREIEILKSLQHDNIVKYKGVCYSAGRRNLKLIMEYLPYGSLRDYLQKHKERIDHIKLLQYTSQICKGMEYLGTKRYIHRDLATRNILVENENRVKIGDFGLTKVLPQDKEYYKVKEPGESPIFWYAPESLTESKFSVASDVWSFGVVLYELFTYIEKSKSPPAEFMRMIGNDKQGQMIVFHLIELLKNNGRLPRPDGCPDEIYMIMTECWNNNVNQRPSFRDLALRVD

With `CNc1cc(Nc2cccn(-c3ccc(F)cn3)c2=O)nc2c(C(=O)NC3CC3)cnn12` [I-116], the inhibition at 10 µM was < 50% on Tyk2 kinase domain (DH1) (compound at 10 μM, ATP 10 μM) and < 50% on JAK2 kinase domain (JH1) (compound at 10 μM, ATP 10 μM). Moreover, in assay [1], the dissociation constant (Kd) was < 0.2 nM.
With `CNc1cc(Nc2cccc(N3CCCC3=O)n2)nc2c(C(=O)N[C@@H]3CC[C@@H]3O)cnn12` [I-679], the inhibition at 10 µM was < 50% on Tyk2 kinase domain (DH1) (compound at 10 μM, ATP 10 μM) and < 50% on JAK2 kinase domain (JH1) (compound at 10 μM, ATP 10 μM). In addition, the dissociation constant Kd in assay [1] was < 0.2 nM.
As for `CNc1cc(Nc2cccn([C@@H]3CCOC[C@@H]3OC)c2=O)nc2c(C(=O)NC3CC3)cnn12` [I-594], the “Tyk2 JH1% Inhibition @ 10 μM” value on Tyk2 kinase domain (DH1) (compound at 10 μM, ATP 10 μM) was “A (percent inhibition at 10 μM lower than 50)”. For the same compound, at JAK2 kinase domain (JH1) (compound at 10 μM, ATP 10 μM), the “JAK2 JH1% Inhibition @ 10 μM” value was “A (percent inhibition at 10 μM lower than 50)”. Moreover, the equilibrium dissociation constant (Kd) in assay [1] was in the range of 0.2 to 1 nM.
With `CNc1cc(Nc2cccn([C@H]3CCN(C)C[C@H]3F)c2=O)nc2c(C(=O)NC3CC3)cnn12` [I-687], the “Tyk2 JH1% Inhibition @ 10 μM” value at Tyk2 kinase domain (DH1) (compound at 10 μM, ATP 10 μM) is given as “A (percent inhibition at 10 μM lower than 50)”. Further, on JAK2 kinase domain (JH1) (compound at 10 μM, ATP 10 μM), the “JAK2 JH1% Inhibition @ 10 μM” value is “A (percent inhibition at 10 μM lower than 50)”. In assay [1], this compound yielded a Kd of 0.2 to 1 nM.
`CNc1cc(Nc2cccn([C@H]3[C@@H]4COC[C@@H]43)c2=O)nc2c(C(=O)NC3CC3)cnn12` [I-810]: the inhibition at 10 µM was < 50% at Tyk2 kinase domain (DH1) (10 μM compound, 10 μM ATP) and < 50% at JAK2 kinase domain (JH1) (10 μM compound, 10 μM ATP). Also, in assay [1], the Kd was < 0.2 nM.
`CNc1cc(Nc2cccn([C@H]3CCCC[C@H]3O)c2=O)nc2c(C(=O)N[C@H]3CC[C@@H]3OC)cnn12` [I-1058]: the inhibition at 10 µM at Tyk2 kinase domain (DH1) (10 μM compound, 10 μM ATP) is < 50%; at JAK2 kinase domain (JH1) (10 μM compound, 10 μM ATP) it was < 50%. Also, the dissociation constant (Kd) in assay [1] is 0.2 to 1 nM.
Turning to `CNc1cc(Nc2cccnc2OC2CCC2)nc2c(C(=O)NC3CCC3)cnn12` [I-168], the inhibition at 10 µM at Tyk2 kinase domain (DH1) (compound at 10 μM, ATP 10 μM) was < 50%; at JAK2 kinase domain (JH1) (compound at 10 μM, ATP 10 μM), < 50%. For the same compound, the Kd in assay [1] was 0.2 to 1 nM.
As to `CNc1cc(-c2cn(CCN3CCCCC3)c3ncccc23)nc2c(C(=O)N[C@H]3CC[C@@H]3O)cnn12` [I-838], the inhibition at 10 µM was < 50% at Tyk2 kinase domain (DH1) (10 μM compound, 10 μM ATP) and < 50% on JAK2 kinase domain (JH1) (10 μM compound, 10 μM ATP). Also, the Kd in assay [1] was < 0.2 nM.
Consider `CNc1cc(Nc2cccn(C3CCN(CCF)CC3)c2=O)nc2c(C(=O)N[C@H]3CC[C@H]3O)cnn12` [I-844], for which the inhibition at 10 µM on Tyk2 kinase domain (DH1) (10 μM compound, 10 μM ATP) was < 50%; on JAK2 kinase domain (JH1) (10 μM compound, 10 μM ATP) it was < 50%. Besides, the dissociation constant Kd in assay [1] was < 0.2 nM.
Turning to `CNc1cc(Nc2cccc(C3CCCCO3)n2)nc2c(C(=O)NCC3(CO)CC3)cnn12` (stereo not drawn) [I-530], the inhibition at 10 µM at Tyk2 kinase domain (DH1) (compound at 10 μM, ATP 10 μM) was < 50%; at JAK2 kinase domain (JH1) (compound at 10 μM, ATP 10 μM) it was < 50%. Further, the equilibrium dissociation constant (Kd) in assay [1] was 0.2 to 1 nM.
For the compound `CNc1cc(Nc2cccn([C@H]3CC[C@](C)(OC)CC3)c2=O)nc2c(C(=O)N[C@H]3CC[C@@H]3O)cnn12` [I-1108], the inhibition at 10 µM at Tyk2 kinase domain (DH1) (10 μM compound, 10 μM ATP) is < 50%; on JAK2 kinase domain (JH1) (10 μM compound, 10 μM ATP), < 50%. Moreover, the equilibrium dissociation constant (Kd) in assay [1] is < 0.2 nM.
With `CNc1cc(Nc2ccc3c(n2)CCO3)nc2c(C(=O)NC3CC3)cnn12` [I-631], the inhibition at 10 µM is < 50% on Tyk2 kinase domain (DH1) (compound at 10 μM, ATP 10 μM) and < 50% at JAK2 kinase domain (JH1) (compound at 10 μM, ATP 10 μM). Also, the Kd in assay [1] fell in the range of 0.2 to 1 nM.
As for `CNc1cc(Nc2cccnc2OC2CC2)nc2c(C(=O)N[C@H]3CCC[C@@H]3O)cnn12` [I-466, 5-((2-cyclopropoxypyridin-3-yl)amino)-N-((1S,2S)-2-hydroxycyclopentyl)-7-(methylamino)pyrazolo[1,5-a]pyrimidine-3-carboxamide], the inhibition at 10 µM at Tyk2 kinase domain (DH1) (compound at 10 μM, ATP 10 μM) was < 50%; at JAK2 kinase domain (JH1) (compound at 10 μM, ATP 10 μM), < 50%. In assay [1], this compound gave a dissociation constant Kd of 0.2 to 1 nM.
Regarding `CNc1cc(Nc2cccn(-c3ccccc3F)c2=O)nc2c(C(=O)N[C@@H]3CC[C@H]3O)cnn12` [I-1039], the inhibition at 10 µM was < 50% at Tyk2 kinase domain (DH1) (10 μM compound, 10 μM ATP) and < 50% at JAK2 kinase domain (JH1) (10 μM compound, 10 μM ATP). In addition, the Kd in assay [1] is < 0.2 nM.
For the compound `[2H]C([2H])([2H])Oc1ncccc1Nc1cc(NC)n2ncc(C(=O)N[C@H]3CCC[C@H](O)C3)c2n1` [I-498], the “Tyk2 JH1% Inhibition @ 10 μM” value at Tyk2 kinase domain (DH1) (compound at 10 μM, ATP 10 μM) is listed as “A (percent inhibition at 10 μM lower than 50)”. In addition, at JAK2 kinase domain (JH1) (compound at 10 μM, ATP 10 μM), the “JAK2 JH1% Inhibition @ 10 μM” value is on record as “A (percent inhibition at 10 μM lower than 50)”. Moreover, the equilibrium dissociation constant (Kd) in assay [1] was < 0.2 nM.

(Values after patent US10508120B2, “TYK2 inhibitors and uses thereof” (Nimbus Lakshmi, Inc., priority 2017, dated 2019).)
